One compound from patent US7943607B2, “Heteroaryl benzamide derivatives for use as GLK activators in the treatment of diabetes” (AstraZeneca AB, priority 2005, dated 2011) can be followed below.

By EC50 is commonly meant the concentration that produces a half-maximal response.

One test deals with Zucker obese fa/fa rats. Kind of test: Oral Glucose Tolerance Test (OGTT). It counts as in vivo, rat. The following applies: 10 mg/kg; given orally 120 minutes before oral glucose 2 g/kg; Zucker obese fa/fa rats on high fat diet. Here is the method:
Oral glucose tolerance tests were done on conscious Zucker obese fa/fa rats (age 12-13 weeks or older) fed a high fat diet (45% kcal fat) for at least two weeks prior to experimentation. The animals were fasted for 2 hours before use for experiments. A test compound or a vehicle was given orally 120 minutes before oral administration of a glucose solution at a dose of 2 g/kg body weight. Blood glucose levels were measured using a Accucheck glucometer from tail bled samples taken at different time points before and after administration of glucose (time course of […]). A time curve of the blood glucose levels was generated and the area-under-the-curve (AUC) for 120 minutes was calculated (the time of glucose administration being time zero). Percent reduction in glucose excursion was determined using the AUC in the vehicle-control group as zero percent reduction.

In test [1] the target is T1, recombinant human pancreatic GLK (Homo sapiens, UniProt P35557).
T1 sequence (P35557 1-465): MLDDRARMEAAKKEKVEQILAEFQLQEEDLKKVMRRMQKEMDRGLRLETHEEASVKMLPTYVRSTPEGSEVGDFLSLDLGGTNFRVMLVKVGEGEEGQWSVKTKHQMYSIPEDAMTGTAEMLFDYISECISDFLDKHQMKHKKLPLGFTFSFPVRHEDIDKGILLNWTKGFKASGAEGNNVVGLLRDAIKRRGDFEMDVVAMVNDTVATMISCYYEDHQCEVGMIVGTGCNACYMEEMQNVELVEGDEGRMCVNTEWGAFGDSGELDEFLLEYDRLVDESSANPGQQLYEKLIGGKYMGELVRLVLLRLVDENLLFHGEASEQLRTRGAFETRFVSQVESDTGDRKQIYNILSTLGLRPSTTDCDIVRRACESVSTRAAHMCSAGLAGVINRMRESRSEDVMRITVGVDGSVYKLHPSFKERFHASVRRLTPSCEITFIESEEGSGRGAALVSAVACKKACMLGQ
The test can be described thus: biochemical.

Molecules are shown by their SMILES.

For `C[C@@H](CO)Oc1cc(Oc2cc3c(cc2F)S(=O)(=O)CCCO3)cc(C(=O)Nc2ccn(C)n2)c1` [Example 3, 3-[(7-Fluoro-5,5-dioxido-3,4-dihydro-2H-1,5-benzoxathiepin-8-yl)oxy]-5-[(1S)-2-hydroxy-1-methylethoxy]-N-(1-methyl-1H-pyrazol-3-yl)benzamide], the “OGTT activity (percent reduction in glucose excursion, AUC vs vehicle control)” value with Zucker obese fa/fa rats is given as 29%. In addition, the EC50 in test [1] was 0.038 µM.
